54 compounds from patent publication US8389764B2, “Urea and sulfamide derivatives as inhibitors of TAFIa” (Sanofi, priority 2006, dated 2013) can be followed below.

The IC50 is the concentration that gives 50% inhibition. Low values mean greater potency, high ones weaker potency.

Numbered stars: 1 amine (or outer) side, 2 acyl side, 3 side chain; on linkers, the order of the positions; unused ones are H or OH. Square brackets hold non-standard residues; d marks the D form. Peptide text beside a SMILES is read from it. * marks the point of attachment. aIle = CC[C@@H](C)[C@H](N)C(=O)O; dCha = N[C@H](CC1CCCCC1)C(=O)O; Ac5c = NC1(C(=O)O)CCCC1; Cbz = O=C(OCc1ccccc1)*; Aib = CC(C)(N)C(=O)O; CO = O=C([*:1])[*:2]

The test has as its target T1, TAFIa (Homo sapiens, UniProt Q96IY4).
T1 construct: purchased American Diagnostica 874TAFIA
T1 sequence (Q96IY4 115-423): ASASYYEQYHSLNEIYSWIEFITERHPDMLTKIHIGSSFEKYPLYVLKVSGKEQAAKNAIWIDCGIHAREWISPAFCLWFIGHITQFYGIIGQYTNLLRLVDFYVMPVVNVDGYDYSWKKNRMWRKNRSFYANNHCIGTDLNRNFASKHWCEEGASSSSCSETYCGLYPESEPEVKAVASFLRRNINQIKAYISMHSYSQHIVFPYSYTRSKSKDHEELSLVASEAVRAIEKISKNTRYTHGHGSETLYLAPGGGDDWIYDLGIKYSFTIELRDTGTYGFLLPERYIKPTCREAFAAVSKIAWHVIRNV
The test is described as follows: TAFIa inhibition, Actichrome plasma TAFI activity kit (American Diagnostica). Format: biochemical. To be noted: 15 min preincubation at room temperature, read at 420 nm, duplicate determination of serial dilutions. How it is done:
The enzymic reaction was started by adding 10 μl of TAFIa developer (prediluted 1:2 with assay buffer).
The IC50 values were calculated from the averaged values (duplicate determination) of serial dilutions of the substance with the aid of the Softmax Pro software (version 4.8; Molecular Devices).
In turn, `CC(C)CCNC(=O)[C@@H](CCCCNC(=O)OCc1ccccc1)NC(=O)N[C@@H](CCCCN)C(=O)O` [Example 2] had a half-maximal inhibitory concentration (IC50) of 1.42 µM.

Regarding `CCNC(=O)[C@@H](NC(=O)[C@@H](CC1CCCCC1)NC(=O)N[C@@H](CCCCN)C(=O)O)C(C)C` [Example 10] ({Lys-CO}-[dCha]-Val-NHEt), the IC50 worked out at 0.979 µM.

Regarding `NCCCC[C@H](NC(=O)N[C@H](CC1CCCCC1)C(=O)NCc1ccc(F)cc1F)C(=O)O` [Example 11, (S)-6-Amino-2-{3-[(R)-2-cyclohexyl-1-(2,4-difluoro-benzylcarbamoyl)-ethyl]-ureido}-hexanoic acid], half-maximal inhibition (IC50) was put at 0.644 µM.

Compound `CC(CNC(=O)[C@@H](CC1CCCCC1)NC(=O)N[C@@H](CCCCN)C(=O)O)c1ccccc1` (stereo partly drawn) [Example 12] had an IC50 of 1.26 µM.

As for `Cc1ccccc1CCNC(=O)[C@@H](CC1CCCCC1)NC(=O)N[C@@H](CCCCN)C(=O)O` [Example 13], the midpoint of inhibition, the IC50, lay at 1.26 µM.

`CC1CCCCC1NC(=O)[C@@H](CC1CCCCC1)NC(=O)N[C@@H](CCCCN)C(=O)O` (stereo partly drawn) [Example 19] came in with an IC50 of 0.353 µM.

Regarding `COc1ccc(CNC(=O)[C@@H](CC2CCCCC2)NC(=O)N[C@@H](CCCCN)C(=O)O)cc1` [Example 21], the IC50 was determined as 0.904 µM.

Take `COC(=O)C(C)(C)NC(=O)[C@@H](CCCCNC(=O)OCc1ccccc1)NC(=O)N[C@@H](CCCCN)C(=O)O` [Example 25] ({Lys-CO}-[dK](Cbz)-[Aib]-OMe): half-maximal inhibition (IC50) required 0.463 µM.

Turning to `Cc1cccc(CNC(=O)[C@@H](CC2CCCCC2)NC(=O)N[C@@H](CCCCN)C(=O)O)c1C` [Example 26], the 50% inhibitory concentration (IC50) came out at 0.487 µM.

`NCCCC[C@H](NC(=O)N[C@H](CC1CCCCC1)C(=O)NCC(c1ccccc1)c1ccccc1)C(=O)O` [Example 28] returned a 50% inhibitory concentration (IC50) of 0.118 µM.

`C[C@H]1CC[C@H](NC(=O)[C@@H](CC2CCCCC2)NC(=O)N[C@@H](CCCCN)C(=O)O)CC1` [Example 31] gave a concentration for half-maximal inhibition (IC50) of 0.076 µM.

Compound `CCOC(=O)[C@H](CC(C)C)NC(=O)[C@@H](CCCCNC(=O)OCc1ccccc1)NC(=O)N[C@@H](CCCCN)C(=O)O` [Example 32] ({Lys-CO}-[dK](Cbz)-Leu-OEt) returned an IC50 of 0.753 µM.

In turn, `CCOC(=O)[C@@H]1CCCC[C@@H]1NC(=O)[C@@H](CCCCNC(=O)OCc1ccccc1)NC(=O)N[C@@H](CCCCN)C(=O)O` [Example 33] had a 50% inhibitory concentration (IC50) of 0.19 µM.

In the case of `CC(CNC(=O)[C@@H](CCCCNC(=O)OCc1ccccc1)NC(=O)N[C@@H](CCCCN)C(=O)O)c1ccccc1` (stereo partly drawn) [Example 34], it took 1.08 µM to reach half-maximal inhibition (IC50).

Take `CC[C@H](C)[C@H](NC(=O)[C@@H](CCCCNC(=O)OCc1ccccc1)NC(=O)N[C@@H](CCCCN)C(=O)O)C(=O)OC` [Example 37]: the IC50 was found to be 0.537 µM.

With `CCOC(=O)[C@@H](NC(=O)[C@@H](CCCCNC(=O)OCc1ccccc1)NC(=O)N[C@@H](CCCCN)C(=O)O)C(C)C` [Example 38] ({Lys-CO}-[dK](Cbz)-Val-OEt), 0.297 µM corresponded to half-maximal inhibition (IC50).

`COC(=O)C1(NC(=O)[C@@H](CCCCNC(=O)OCc2ccccc2)NC(=O)N[C@@H](CCCCN)C(=O)O)CCCC1` [Example 39] ({Lys-CO}-[dK](Cbz)-[Ac5c]-OMe): 1.14 µM corresponded to half-maximal inhibition (IC50).

With `CC1CCCC(NC(=O)[C@@H](CC2CCCCC2)NC(=O)N[C@@H](CCCCN)C(=O)O)C1` (stereo partly drawn) [Example 41], inhibition was half-maximal at 0.09 µM (IC50).

The compound `CC1CCCCC1NC(=O)[C@@H](CCCCNC(=O)OCc1ccccc1)NC(=O)N[C@@H](CCCCN)C(=O)O` (stereo partly drawn) [Example 42] registered an IC50 of 0.839 µM.

Regarding `NCCCC[C@H](NC(=O)N[C@H](CCCCNC(=O)OCc1ccccc1)C(=O)NC1C[C@@H]2CC[C@H]1C2)C(=O)O` (stereo partly drawn) [Example 43], the IC50 is 0.046 µM.

`C[C@H](NC(=O)[C@@H](CCCCNC(=O)OCc1ccccc1)NC(=O)N[C@@H](CCCCN)C(=O)O)c1ccc(Cl)cc1` [Example 44] gave an IC50 of 0.144 µM.

The compound `CCOC(=O)[C@@H](NC(=O)[C@@H](CC1CCCCC1)NC(=O)N[C@@H](CCCCN)C(=O)O)C(C)C` [Example 49] ({Lys-CO}-[dCha]-Val-OEt) yielded an IC50 of 0.106 µM.

As to `CC[C@@H](C)[C@H](NC(=O)[C@@H](CC1CCCCC1)NC(=O)N[C@@H](CCCCN)C(=O)O)C(=O)OC` [Example 57] ({Lys-CO}-[dCha]-[aIle]-OMe), the IC50 amounted to 0.544 µM.

Compound `NCCCC[C@H](NC(=O)N[C@H](CC1CCCCC1)C(=O)N[C@@H]1CC1c1ccccc1)C(=O)O` (stereo partly drawn) [Example 64] displayed an IC50 of 0.757 µM.

`CCC(C)CNC(=O)[C@@H](CC1CCCCC1)NC(=O)N[C@@H](CCCCN)C(=O)O` (stereo partly drawn) [Example 69] displayed an IC50 of 1.05 µM.

`CC1CCCC(NC(=O)[C@@H](CC2CCCCC2)NC(=O)N[C@@H](CCCCN)C(=O)O)C1C` (stereo partly drawn) [Example 72] showed an IC50 of 0.167 µM.

In turn, `NCCCC[C@H](NC(=O)N[C@H](CC1CCCCC1)C(=O)NC1CCc2ccccc2C1)C(=O)O` (stereo partly drawn) [Example 73] came in with an IC50 of 0.047 µM.

`NCCCC[C@H](NC(=O)N[C@H](CC1CCCCC1)C(=O)NC1C2CC3CC(C2)CC1C3)C(=O)O` (stereo partly drawn) [Example 74]: the IC50 turned out to be 0.019 µM.

As for `CC(C)CC(C)NC(=O)[C@@H](CC1CCCCC1)NC(=O)N[C@@H](CCCCN)C(=O)O` (stereo partly drawn) [Example 75], the midpoint of inhibition, the IC50, lay at 0.653 µM.

On to `CC(C)CNC(=O)[C@@H](CC1CCCCC1)NC(=O)N[C@@H](CCCCN)C(=O)O` [Example 76], for which the IC50 amounted to 0.845 µM.

Take `CC1(C)C2CCC1(C)[C@@H](NC(=O)[C@@H](CC1CCCCC1)NC(=O)N[C@@H](CCCCN)C(=O)O)C2` (stereo partly drawn) [Example 77]: it took 0.003 µM to reach half-maximal inhibition (IC50).

For `NCCCC[C@H](NC(=O)N[C@H](CC1CCCCC1)C(=O)NCC12CC3CC(CC(C3)C1)C2)C(=O)O` [Example 78], the IC50 came out at 0.305 µM.

As to `NCCCC[C@H](NC(=O)N[C@H](CC1CCCCC1)C(=O)NC12CC3CC(CC(C3)C1)C2)C(=O)O` [Example 79], 0.031 µM corresponded to half-maximal inhibition (IC50).

The compound `C[C@@H]1C(CNC(=O)[C@@H](CC2CCCCC2)NC(=O)N[C@@H](CCCCN)C(=O)O)CC2C[C@@H]1C2(C)C` (stereo partly drawn) [Example 84] came in with an IC50 of 0.654 µM.

The compound `NCCCC[C@H](NC(=O)N[C@H](CC1CCCCC1)C(=O)N[C@H]1CCc2ccccc2C1)C(=O)O` [Example 85] showed an IC50 of 0.039 µM.

Compound `CC(C)(C)C1CCC(NC(=O)[C@@H](CC2CCCCC2)NC(=O)N[C@@H](CCCCN)C(=O)O)CC1` (stereo partly drawn) [Example 86] yielded an IC50 of 0.06 µM.

On to `Nc1ccc(CC(NC(=O)N[C@H](CC2CCCCC2)C(=O)NC2CC3CCC2C3)C(=O)O)cn1` (stereo partly drawn) [Example 88], for which the IC50 amounted to 0.393 µM.

The compound `CC1(C)[C@@H]2CC[C@@]1(C)[C@@H](NC(=O)[C@@H](CC1CCCCC1)NC(=O)N[C@@H](CCCNC(=N)N)C(=O)O)C2` [Example 91] returned an IC50 of 0.004 µM.

In turn, `NCCCC[C@H](NC(=O)N[C@H](CC1CCCCC1)C(=O)NC1CCC2CCCCC2C1)C(=O)O` (stereo partly drawn) [Example 92] yielded an IC50 of 0.16 µM.

In turn, `CC1(C)[C@@H]2CC[C@@]1(C)[C@@H](NC(=O)[C@@H](CC1CCCCC1)NC(=O)N[C@@H](Cc1ccc(N)nc1)C(=O)O)C2` [Example 93] displayed an IC50 of 1.5 µM.

`CC1(C)[C@@H]2CC[C@@]1(C)[C@@H](NC(=O)[C@@H](CC1CCCCC1)NC(=O)N[C@H](Cc1ccc(N)nc1)C(=O)O)C2` [Example 94] displayed an IC50 of 109 µM.

Consider `CC1(C)[C@@H]2CC[C@@]1(C)C(NC(=O)CC(CC1CCCCC1)NC(=O)N[C@@H](CCCN)C(=O)O)C2` (stereo partly drawn) [Example 95], for which the IC50 amounted to 41 µM.

Regarding `CC1(C)[C@@H]2CC[C@@]1(C)C(NC(=O)[C@@H](Cc1ccccc1)NC(=O)N[C@@H](CCCCN)C(=O)O)C2` (stereo partly drawn) [Example 96], the IC50 amounted to 0.015 µM.

For `CC(C)[C@@H](NC(=O)N[C@@H](CCCCN)C(=O)O)C(=O)N[C@H]1C[C@H]2CC[C@]1(C)C2(C)C` [Example 97], the IC50 was 0.462 µM.

Regarding `CC1(C)[C@@H]2CC[C@@]1(C)C(NC(=O)[C@H](NC(=O)N[C@@H](CCCCN)C(=O)O)C1CCCCC1)C2` (stereo partly drawn) [Example 98], the IC50 was 1.04 µM.

The compound `CC(C)C[C@@H](NC(=O)N[C@@H](CCCCN)C(=O)O)C(=O)NC1C[C@H]2CC[C@]1(C)C2(C)C` (stereo partly drawn) [Example 99] yielded an IC50 of 0.057 µM.

Compound `CCC[C@@H](NC(=O)N[C@@H](CCCCN)C(=O)O)C(=O)N[C@H]1C[C@H]2CC[C@]1(C)C2(C)C` [Example 103] yielded an IC50 of 0.015 µM.

With `CC1(C)C2CC[C@@]1(C)[C@@H](NC(=O)[C@@H](CC1CCCCC1)NC(=O)N[C@@H](CCONC(=N)N)C(=O)O)C2` [Example 107], inhibition was half-maximal at 1.1 µM (IC50).

As to `CC1(C)[C@@H]2CC[C@@]1(C)[C@@H](NC(=O)[C@@H](CC1CC1)NC(=O)N[C@@H](CCCCN)C(=O)O)C2` [Example 108], the IC50 was found to be 0.007 µM.

In the case of `CC1(C)[C@@H]2CC[C@@]1(C)[C@@H](NC(=O)[C@@H](CC1CCC1)NC(=O)N[C@@H](CCCCN)C(=O)O)C2` [Example 109], the IC50 was determined as 0.009 µM.

`CC1(C)[C@@H]2CC[C@@]1(C)[C@@H](NC(=O)[C@@H](CC1CCCCC1)NC(=O)NC(Cc1ccc(N)nc1)C(=O)O)C2` (stereo partly drawn) [Example 110]: half-maximal inhibition (IC50) was put at 0.006 µM.

`CC1(C)[C@@H]2CC[C@@]1(C)[C@@H](NC(=O)C(CC1CCCC1)NC(=O)N[C@@H](CCCCN)C(=O)O)C2` (stereo partly drawn) [Example 111] yielded an IC50 of 0.004 µM.

For `CC(C)[C@H](NC(=O)[C@@H](CCCCNC(=O)OCc1ccccc1)NC(=O)N[C@@H](CCCCN)C(=O)O)C(=O)NCCCc1ccccc1` [Example 113], it took 0.747 µM to reach half-maximal inhibition (IC50).

As to `CC(C)[C@H](NC(=O)[C@@H](CCCCNC(=O)OCc1ccccc1)NC(=O)N[C@@H](CCCCN)C(=O)O)C(=O)N[C@@H]1C[C@H]2CC[C@@H]1C2` [Example 114], the IC50 was 0.519 µM.
